This note sets out measurements from patent EP0367747A2, “Dideoxy-L-arabinitol derivatives as antiviral compounds” (G.D. Searle & Co., priority 1988, dated 1990).

Marks after values point to notes of the source that are not given here.

Data set [1] deals with Sheep choroid plexus(SCP) cells. Put plainly: Toxicity of compounds in control wells without virus, graded morphologically 0 to 4. Further details: key: 0 = no toxicity; 4 = total cell lyses. Format: cell-based. Conditions: 0 to 4 scale. The protocol: (§1) SCP cells were cultured in 6-well plates to confluence. Wells were washed two times with serum free Minimal Essential Medium (MEM) to remove FBS. 0.2ml of virus was added per well in MEM supplemented with 4mM glutamine and gentamycin. After 1 hour adsorption, the virus was aspirated from each well. The appropriate concentration of each compound in 5 ml of Medium 199 (M-199) supplemented with 2% lamb serum, 4mM glutamine, 0.5% agarose and gentamycin was added to each well. Cultures were incubated at 37°C in a humidified 5% CO₂ incubator for 3-4 weeks. To terminate the test: cultures were fixed in 10% formalin, the agar removed, the monolayers stained with 1% crystal violet and plaques counted. Each compound concentration was run in triplicate. […] 0 is no toxicity observed while 4 is total lysing of the cell monolayer.
Control wells without virus were completed to determine the toxicity of compounds.

For data set [2], the system named is almond beta-glucosidase. Put plainly: Beta-glucosidase inhibition assay, pH 7.4 (p-nitrophenol release). Type of data set: biochemical. Conditions: for β-Glucosidase pH 7.4 % Inhibition: Table 5; for IC50: Table 3, at pH 7.4, read-out: β-glucosidase IC₅₀. The method, then: (§2) Yeast alpha-glucosidase and almond beta-glucosidase activities were measured by a modification of the method of Evans, et al., Phytochemistry 22, 768-770 (1983). The modifications included 1) assay of activities at pH 7.4 in HEPES (N-2-hydroxyethylpiperazine-N′-2-ethanesulfonic acid) buffer, 2) measurement in 96 well microtiter plates and 3) inclusion of 10% DMSO in control and test samples. The release of p-nitrophenol from the substrate p-nitrophenylglycoside was measured spectrophotometrically in the presence and absence of test compound. Each assay included a known inhibitor of the enzyme as a standard. IC₅₀ values were determined for compounds which inhibited the enzymes more than 50% at a 1 millimolar concentration. To 100 µl 50 mM HEPES buffer, pH 7.4, in a microtiter plate, add 20 µl test compound in DMSO (DMSO alone in control), 40 µl (0.136 units) beta-glucosidase (Sigma) in HEPES buffer and pre-incubate at room temperature for 15 minutes. […] Absorption change was measured at 15 to 25 minutes (reaction is linear for at least 30 minutes). Each sample was tested in triplicate. IC₅₀ values were determined from the linear portion of the log concentration vs % inhibition curve obtained from a minimum of 3 points. Castanospermine was used as standard inhibitor.

For another data set, the target named is T1, Yeast alpha-glucosidase (Saccharomyces cerevisiae, UniProt P53341).
T1 construct: purchased Sigma
T1 sequence (P53341 whole entry): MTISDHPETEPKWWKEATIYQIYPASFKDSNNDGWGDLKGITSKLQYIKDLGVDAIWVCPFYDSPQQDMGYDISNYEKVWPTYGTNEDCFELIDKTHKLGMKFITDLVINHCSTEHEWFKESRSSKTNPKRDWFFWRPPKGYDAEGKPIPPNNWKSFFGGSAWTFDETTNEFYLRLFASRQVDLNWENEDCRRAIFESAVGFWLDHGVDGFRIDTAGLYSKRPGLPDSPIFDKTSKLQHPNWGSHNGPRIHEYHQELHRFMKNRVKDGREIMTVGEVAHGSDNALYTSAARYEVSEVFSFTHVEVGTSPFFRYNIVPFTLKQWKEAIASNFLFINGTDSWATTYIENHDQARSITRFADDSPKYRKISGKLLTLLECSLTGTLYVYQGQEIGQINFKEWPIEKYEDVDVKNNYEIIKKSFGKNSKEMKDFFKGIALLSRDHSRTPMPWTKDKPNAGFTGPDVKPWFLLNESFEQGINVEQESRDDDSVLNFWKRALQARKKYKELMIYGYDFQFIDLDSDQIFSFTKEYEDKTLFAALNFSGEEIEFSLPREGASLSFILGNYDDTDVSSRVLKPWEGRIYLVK
The data set can be described thus: Alpha-glucosidase inhibition assay, pH 7.4 (p-nitrophenol release). Format: biochemical. Conditions: for inhibition at 1000 µM: at 1.0 mM; for IC50: Table 3, pH 7.4, read-out: α-glucosidase IC₅₀. The protocol:
as §2, with “µl (0.013” for “µl (0.136”, “units) yeast alpha-glucosidase” for “units) beta-glucosidase”, “(reaction was” for “(reaction is”, “points. Deoxynojirimycin” for “points. Castanospermine”

The next data set has as its system visna virus. The data set can be described thus: Inhibition of visna virus in vitro (plaque reduction assay / 96 well plate assay) in SCP cells. Type of data set: cell-based. Further details: key to Antiviral Activity: A = active compound; I = inactive. The conditions noted are these: for EC50: inhibition of visna virus, read-out: EC₅₀; for Antiviral Activity: Table 4. The method, then: Various compounds as prepared above were tested for inhibition of visna virus in vitro in a plaque reduction assay as follows:
Sheep choroid plexus(SCP) cells were obtained from American Type Culture Collection (ATCC) catalogue number CRL 1700 and were routinely passaged in vitro in Dulbecco's Modified Eagles (DME) medium supplemented with 20% fetal bovine serum (FBS). SCP cells were passaged once per week at a 1:2 or 1:3 split ratio. Visna was titrated by plaque assay in six-well plates. Virus pools were stored at -70°C.
as §1
The 96 well plate assay was performed similarly to the plaque assay above with modifications. SCP cells were seeded at 1 x 10⁴ cells per well in 0.1 ml DME medium. When confluent, the wells were washed with serum free MEM and 25ul of virus added in M-199 supplemented with 2% lamb serum. After 1 hour, 75uL of medium containing test compound was added to each well containing virus. After 2-3 weeks incubation the cytopathic effect of the virus was determined by staining with a vital stain. Cell viability was measured by determining stain density using a 96 well plate reader.
Background: In a plaque reduction assay, fewer plaques than in the control indicate reduced infectivity or spread.

In data set [3] the test system is almond beta-glucosidase. The data set can be described thus: Beta-glucosidase inhibition assay, pH 4.8 (p-nitrophenol release). Type of data set: biochemical. Conditions: for β-Glucosidase pH 4.8 % Inhibition: Table 5; for IC50: Table 3, at pH 4.8, read-out: β-glucosidase IC₅₀. The protocol:
Yeast alpha-glucosidase and almond beta-glucosidase activities were measured by a modification of the method of Evans, et al., Phytochemistry 22, 768-770 (1983). The modifications included 1) assay of activities at pH 7.4 in HEPES (N-2-hydroxyethylpiperazine-N′-2-ethanesulfonic acid) buffer, 2) measurement in 96 well microtiter plates and 3) inclusion of 10% DMSO in control and test samples. The release of p-nitrophenol from the substrate p-nitrophenylglycoside was measured spectrophotometrically in the presence and absence of test compound. Each assay included a known inhibitor of the enzyme as a standard. IC₅₀ values were determined for compounds which inhibited the enzymes more than 50% at a 1 millimolar concentration. To 100 µl 50 mM sodium citrate buffer, pH 4.8, in a microtiter plate, add 15 µl test compound in DMSO (DMSO alone in control), 20 µl (.017 units) beta-glucosidase (Sigma) in citrate buffer and pre-incubate at room temperature for 15 minutes. Add 25 µl 2.50 mM p-nitrophenyl-beta-D-glucopyranside in citrate buffer, as substrate. Incubate at room temperature 20 minutes (reaction is linear for at least 30 minutes). Add 50 µl 0.4 M NaOH. Read absortion change at 405 nm in a Biotek EIA Autoreader. Each sample was tested in triplicate. IC₅₀ values were determined from the linear portion of the log concentration vs % inhibition curve obtained from a minimum of 3 points. Castanospermine was used as standard inhibitor.

The mark [4] stands for this setting: Table 5, read-out: α-Glucosidase % Inhibition.

As a reminder, the inhibition is the drop in the measured response relative to a control, in per cent. For the compound `CC(=O)OCCN1C[C@H](OC(C)=O)[C@@H](OC(C)=O)[C@@H]1COC(C)=O` [Example 3, 1,4-([2-Acetyloxyethyl]imino)-1,4-dideoxy-L-arabinitol, triacetate], the Toxicity in data set [1] (Concentration 0.001 mM), in data set [1] (Concentration 0.01 mM), in data set [1] (Concentration 0.1 mM) and in data set [1] (Concentration 1.0 mM) was 0 each time. Moreover, the “β-Glucosidase pH 7.4 % Inhibition” value in the data set with almond beta-glucosidase [2] (at 1.0 mM) is listed as 5%. The inhibition at 1000 µM on Yeast alpha-glucosidase (setting [4]) came to 15%; in the data set with visna virus (Visna-maedi virus, Concentration 1.0 mM) it was 90%. In addition, the inhibition at 1 µM in the data set with visna virus (Visna-maedi virus, Concentration 0.001 mM) is -46%. Besides, in the data set with visna virus (Visna-maedi virus, Concentration 0.01 mM), the inhibition at 10 µM is -64%. Besides, the inhibition at 100 µM with visna virus (Visna-maedi virus, Concentration 0.1 mM) stood at 72%. The “β-Glucosidase pH 4.8 % Inhibition” value with almond beta-glucosidase [3] (at 1.0 mM) came out at 12%.

Regarding `OC[C@H]1[C@H](O)[C@@H](O)CN1CCCc1ccccc1` [Example 16, 1,4-([3-Propylphenyl]imino)-1,4-dideoxy-L-arabinitol], the Toxicity in data set [1] (Table 4, 0.01 mM Concn.) came out at 0; in data set [1] (Table 4, 0.1 mM Concn.), 0; in data set [1] (Table 4, 1.0 mM Concn.), 3. Besides, the values for the IC50 at almond beta-glucosidase [2], on Yeast alpha-glucosidase and on almond beta-glucosidase [3] were greater than 1000 µM, 13 µM and greater than 1000 µM, respectively. Further, the “β-Glucosidase pH 7.4 % Inhibition” value in the data set on almond beta-glucosidase [2] (at 1.0 mM) came to 31%. Moreover, the “β-Glucosidase pH 4.8 % Inhibition” value in the data set with almond beta-glucosidase [3] (at 1.0 mM) is listed as 34%.

With `CN1CC(O)C(O)C1CO` [Example 18, 1,4-(Methylimino)-1,4-dideoxy-L-arabinitol], the values for the IC50 on almond beta-glucosidase [2], at Yeast alpha-glucosidase and at almond beta-glucosidase [3] were 23 µM, 46 µM and 36 µM, respectively. The EC50 in the data set with visna virus (Visna-maedi virus) was found to be 100 µM.

Take `CC(=O)OC[C@H]1[C@H](OC(C)=O)[C@@H](OC(C)=O)CN1C(=O)OCc1ccccc1` [Example 20, 1,4-(Benzyloxycarbonylimino)-1,4-dideoxy-L-arabinitol, triacetate]: the Toxicity in data set [1] (Table 4, 0.1 mM Concn.) was 0; in data set [1] (Table 4, 1.0 mM Concn.) it was 0. The “β-Glucosidase pH 7.4 % Inhibition” value in the data set with almond beta-glucosidase [2] (at 1.0 mM) came to 6%. In addition, the inhibition at 1000 µM on Yeast alpha-glucosidase (setting [4]) stood at 18%. For the same compound, the EC50 with visna virus (Visna-maedi virus) came to 1000 µM. Besides, the “β-Glucosidase pH 4.8 % Inhibition” value in the data set on almond beta-glucosidase [3] (at 1.0 mM) was 5%.

For `CCCC(=O)OC[C@H]1[C@H](OC(=O)CCC)[C@@H](OC(=O)CCC)CN1C(=O)OCc1ccccc1` [Example 22, 1,4-(Benzyloxycarbonylimino)-1,4-dideoxy-L-arabinitol, tributyrate], the Toxicity amounted to 1 in data set [1] (Table 4, 0.1 mM Concn.) and 2 in data set [1] (Table 4, 1.0 mM Concn.). Moreover, the “β-Glucosidase pH 7.4 % Inhibition” value with almond beta-glucosidase [2] (at 10 µM (**)) was found to be 2%**. At Yeast alpha-glucosidase (Table 5, at 10 µM (**), read-out: α-Glucosidase % Inhibition), the inhibition at 10 µM is 30%. The “β-Glucosidase pH 4.8 % Inhibition” value in the data set with almond beta-glucosidase [3] (at 10 µM (**)) was found to be 11%**.

As to `CCCCN1CC(OC(=O)CCC)C(OC(=O)CCC)C1COC(=O)CCC` [Example 26, 1,4-(Butylimino)-1,4-dideoxy-L-arabinitol, tributyrate], the Toxicity in data set [1] (Table 4, 0.1 mM Concn.) was determined as 0; in data set [1] (Table 4, 1.0 mM Concn.), 2. Also, the “β-Glucosidase pH 7.4 % Inhibition” value in the data set on almond beta-glucosidase [2] (at 100 µM (***)) was determined as 1%***. For the same compound, the inhibition at 100 µM on Yeast alpha-glucosidase (setting [4]) turned out to be 20%. In addition, the EC50 in the data set with visna virus (Visna-maedi virus) was determined as 1000 µM. Moreover, the “β-Glucosidase pH 4.8 % Inhibition” value in the data set with almond beta-glucosidase [3] (at 100 µM (***)) stood at 1%***.

In the case of `CC(=O)OC[C@H]1[C@H](OC(C)=O)[C@@H](OC(C)=O)CN1C(=O)Cc1ccccc1` [Example 28, 1,4-(Phenylacetylimino)-1,4-dideoxy-L-arabinitol, triacetate], the Toxicity in data set [1] (Table 4, 0.01 mM Concn.) amounted to 0; in data set [1] (Table 4, 0.1 mM Concn.), 0; in data set [1] (Table 4, 1.0 mM Concn.), 1. In the data set on almond beta-glucosidase [2] (at 1.0 mM), the “β-Glucosidase pH 7.4 % Inhibition” value came to 6%. For the same compound, the inhibition at 1000 µM on Yeast alpha-glucosidase (setting [4]) is 30%. Further, the “Antiviral Activity” value in the data set with visna virus (0.01 mM Concn.), in the data set on visna virus (0.1 mM Concn.) and with visna virus (1.0 mM Concn.) was “A” in each case. In addition, the EC50 with visna virus (Visna-maedi virus) turned out to be 1000 µM. The “β-Glucosidase pH 4.8 % Inhibition” value in the data set with almond beta-glucosidase [3] (at 1.0 mM) is on record as 0%.

For `CCC(=O)OC[C@H]1[C@H](OC(=O)CC)[C@@H](OC(=O)CC)CN1C(=O)OCc1ccccc1` [Example 29, 1,4-(Benzyloxycarbonylimino)-1,4-dideoxy-L-arabinitol, tripropionate], the Toxicity in data set [1] (Table 4, 0.001 mM Concn.) is 0; in data set [1] (Table 4, 0.01 mM Concn.), 0; in data set [1] (Table 4, 0.1 mM Concn.), 0. Moreover, the “β-Glucosidase pH 7.4 % Inhibition” value in the data set on almond beta-glucosidase [2] (at 100 µM (***)) is listed as 5%***. Also, the inhibition at 100 µM at Yeast alpha-glucosidase (setting [4]) worked out at 41%. In addition, the “Antiviral Activity” value with visna virus (0.001 mM Concn.), with visna virus (0.01 mM Concn.) and in the data set with visna virus (0.1 mM Concn.) was “A” in each case. Besides, the “β-Glucosidase pH 4.8 % Inhibition” value with almond beta-glucosidase [3] (at 100 µM (***)) stood at 2%***.
